In patent US5773029A, “High solubility multicomponent inclusion complexes consisting of an acidic drug, a cyclodextrin and a base” (Chiesi Farmaceutici S.p.A., priority 1994, dated 1998):
Converted amounts (≈) assume the structure as drawn.

Tests used:
physchem = test: physchem
Excerpt: Equilibrium solubility, at room temperature,
at different pH values, of Glibenclamide (G), its
sodium salt (G--Na), and a physical mixture thereof with
βCD (G/βCD) in a 1:1, 1:2, 1:3.
Equilibrium solubility (eq.) and instant solubility
at various times, at room temperature, at different pH values, […]

[1] = Dissolution: glibenclamide concentration versus time at room temperature in buffer (Table 3); format: physicochemical
[2] = cited from earlier work

NS(=O)(=O)c1cc2c(cc1Cl)N=CNS2(=O)=O [Chlorothiazide]
solubility thermodynamic (physchem): 400 to 700 µg/mL (≈ 1350 to 2370 µM)

COc1ccc(Cl)cc1C(=O)NCCc1ccc(S(=O)(=O)NC(=O)NC2CCCCC2)cc1 [G, Glibenclamide]
Glibenclamide concentration by dissolution ([1]; pH 1.4, 05 min): < 0.01 mg/mL
Glibenclamide concentration by dissolution ([1]; pH 1.4, 15 min): < 0.01 mg/mL
Glibenclamide concentration by dissolution ([1]; pH 1.4, 30 min): < 0.01 mg/mL
Glibenclamide concentration by dissolution ([1]; pH 1.4, 40 min): < 0.01 mg/mL
Glibenclamide concentration by dissolution ([1]; pH 1.4, 50 min): < 0.01 mg/mL
Glibenclamide concentration by dissolution ([1]; pH 5.0, 05 min): < 0.01 mg/mL
Glibenclamide concentration by dissolution ([1]; pH 5.0, 10 min): < 0.01 mg/mL
Glibenclamide concentration by dissolution ([1]; pH 5.0, 20 min): < 0.01 mg/mL
Glibenclamide concentration by dissolution ([1]; pH 5.0, 40 min): < 0.01 mg/mL
Glibenclamide concentration by dissolution ([1]; pH 5.0, 50 min): < 0.01 mg/mL
solubility thermodynamic (physchem; pH 4): 4 µg/mL (≈ 8.1 µM)
solubility thermodynamic (physchem; pH 7.39): 18.8 µg/mL (≈ 38.1 µM)
solubility thermodynamic (physchem; pH 7.5): 20 µg/mL (≈ 40.5 µM)
solubility thermodynamic (physchem; pH 8.89): 299 µg/mL (≈ 605 µM)
solubility thermodynamic (physchem; pH 9): 600 µg/mL (≈ 1210 µM)
solubility thermodynamic (physchem; pH 9.53): 768 µg/mL (≈ 1550 µM)
pKa [2]: 6.8

COc1ccc(Cl)cc1C(=O)NCCc1ccc(S(=O)(=O)NC(=O)NC2CCCCC2)cc1 [G--Na]
solubility thermodynamic (physchem; pH 9.3): 7000 µg/mL (≈ 14200 µM)

CN1C(C(=O)Nc2ccccn2)=C(O)c2ccccc2S1(=O)=O [P, Piroxicam]
solubility thermodynamic (physchem; pH 1.2): 108 µg/mL (≈ 326 µM)
solubility thermodynamic (physchem; pH 6): 76 µg/mL (≈ 229 µM)
solubility thermodynamic (physchem; pH 7): 570 µg/mL (≈ 1720 µM)
solubility thermodynamic (physchem; pH 7.5): 1030 µg/mL (≈ 3110 µM)
